Test results: patent publication US20090054403A1, “Treatment of Post-Traumatic Stress Disorder” (priority 2007, published 2009)
pIC50: −log10 of the molar value. “Also recorded” adds a separate entry of the source.

Legend:
tyrosine hydroxylase = biological target: T1, tyrosine hydroxylase (Homo sapiens, UniProt P07101); experiment: Selected enzyme assay; type: biochemical
T1 construct: PanLabs Inc (assay provider)
Method: (§1) The activity of nepicastat at twelve selected enzymes and receptors was determined using established assays. Details of individual receptor radioligand binding assays can be found in Wong et al (1993). Binding data were analyzed by iterative curve-fitting to a four parameter logistic equation. Ki values were calculated from IC50 values using the Cheng-Prusoff equation. Enzyme inhibitory activity was expressed as IC50 (concentration required to produce 50% inhibition of enzyme activity). Male SHRs (15-16 weeks old, Charles River, Wilmington, Mass., USA) were used in the study. On the day of the study, animals were weighed and randomly assigned to be dosed with either vehicle (control) or the appropriate dose of nepicastat (3, 10, 30 or 100 mg.kg^−1, po) or (R)-5-Aminomethyl-1-(5,7-difluoro-1,2,3,4-tetrahydronaphth-2-yl)-2,3-dihydro-2-thioxo-1H-imidazole hydrochloride (30 mg.kg^−1, po) three consecutive times, twelve hours apart. At six hours after the third dose, the rats were anaesthetized with halothane, decapitated and tissues (cerebral cortex, mesenteric artery and left ventricle) were rapidly harvested, weighed, placed in iced perchloric acid (0.4 M), frozen in liquid nitrogen and stored at −70° C. until subsequent analysis. To quantify noradrenaline and dopamine concentrations, tissues were homogenized by brief sonication and centrifuged at 13,000 rpm for 30 minutes at 4° C. The supernatant, spiked with 3,4-dihydroxybenzylamine (internal standard), was assayed for noradrenaline and dopamine by HPLC using electrochemical detection.
(§2) In vitro assay of selected enzymes and neurotransmitter receptors. The activity of 2a at eleven different enzymes was determined using established assays (PanLabs Inc, Foster City, Calif.). The affinity of 2a for thirteen selected receptors was determined by radioligand binding assays using standard filtration techniques and membrane preparations. Binding data were analyzed by iterative curve fitting to a four parameter logistic equation. Ki values were calculated using the Cheng-Prusoff equation.

cyclooxygenase-I = biological target: T2, cyclooxygenase-I (Homo sapiens, UniProt P23219); experiment: Selected enzyme assay; type: biochemical
T2 construct: PanLabs Inc (assay provider)
T2 sequence (P23219 24-599): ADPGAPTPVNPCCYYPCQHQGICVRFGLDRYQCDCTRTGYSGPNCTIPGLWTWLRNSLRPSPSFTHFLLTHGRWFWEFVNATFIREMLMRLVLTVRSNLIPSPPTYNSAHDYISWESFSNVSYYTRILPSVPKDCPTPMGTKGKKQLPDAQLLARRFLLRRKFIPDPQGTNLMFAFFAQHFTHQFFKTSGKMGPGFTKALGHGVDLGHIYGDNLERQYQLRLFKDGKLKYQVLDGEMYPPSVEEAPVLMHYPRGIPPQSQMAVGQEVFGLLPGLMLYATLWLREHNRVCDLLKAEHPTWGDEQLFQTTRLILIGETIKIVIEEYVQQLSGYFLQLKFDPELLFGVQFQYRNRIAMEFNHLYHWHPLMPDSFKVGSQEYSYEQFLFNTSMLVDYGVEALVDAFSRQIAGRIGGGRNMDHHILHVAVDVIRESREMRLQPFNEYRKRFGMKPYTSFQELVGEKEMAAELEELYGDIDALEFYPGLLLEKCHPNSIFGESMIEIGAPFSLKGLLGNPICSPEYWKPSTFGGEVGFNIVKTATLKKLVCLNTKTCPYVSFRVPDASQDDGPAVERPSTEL
Method: as §1, §2

nitric oxide synthase = experiment: Selected enzyme assay; type: biochemical
Method: as §1, §2

acetyl CoA synthetase = experiment: Selected enzyme assay; type: biochemical
Method: as §1, §2

neutral endopeptidase = biological target: T3, neutral endopeptidase (Homo sapiens, UniProt P08473); experiment: Selected enzyme assay; type: biochemical
T3 construct: PanLabs Inc (assay provider)
T3 sequence (P08473 whole entry, species assumed): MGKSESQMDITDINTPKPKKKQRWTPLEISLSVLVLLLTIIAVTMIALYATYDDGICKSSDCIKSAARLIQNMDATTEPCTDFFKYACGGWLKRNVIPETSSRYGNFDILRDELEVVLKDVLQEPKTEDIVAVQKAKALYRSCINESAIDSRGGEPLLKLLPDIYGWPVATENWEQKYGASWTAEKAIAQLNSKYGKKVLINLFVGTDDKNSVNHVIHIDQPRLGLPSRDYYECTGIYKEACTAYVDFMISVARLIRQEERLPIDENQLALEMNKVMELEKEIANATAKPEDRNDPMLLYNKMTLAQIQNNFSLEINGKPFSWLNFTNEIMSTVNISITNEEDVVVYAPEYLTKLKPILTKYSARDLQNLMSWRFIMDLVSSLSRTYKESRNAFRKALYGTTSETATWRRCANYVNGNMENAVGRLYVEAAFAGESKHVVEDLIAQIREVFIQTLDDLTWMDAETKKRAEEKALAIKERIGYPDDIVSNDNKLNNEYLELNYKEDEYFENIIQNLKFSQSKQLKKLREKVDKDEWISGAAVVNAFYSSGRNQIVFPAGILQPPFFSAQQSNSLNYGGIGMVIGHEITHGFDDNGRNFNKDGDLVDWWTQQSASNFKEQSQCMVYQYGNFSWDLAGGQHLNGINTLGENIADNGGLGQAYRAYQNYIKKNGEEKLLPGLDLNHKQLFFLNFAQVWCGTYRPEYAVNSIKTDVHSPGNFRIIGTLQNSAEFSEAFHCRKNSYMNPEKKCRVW
Method: as §1, §2

[1] = biological target: acyl CoA-cholesterol acyl transferase; experiment: Selected enzyme assay; type: biochemical
Method: as §1, §2

[2] = biological target: Ca2+/calmodulin protein kinase II; experiment: Selected enzyme assay; type: biochemical
Method: as §1, §2

[3] = test system: sympathetically-evoked functional responses; experiment: Sympathetically-evoked functional responses in anesthetized dogs; type: in vivo, beagle dogs
[4] = test system: mean arterial pressure and heart rate; experiment: Heart rate and mean arterial pressure in restrained SHR with SCH-23390 pretreatment; type: in vivo, spontaneous hypertensive rats
Text: Male, spontaneous hypertensive rats (280-345 g; Charles River Labs, Kingston, N.Y.) were fasted overnight then anesthetized with ether. A femoral artery and femoral vein were cannulated with PE50 tubing for recording of blood pressure and administration of compounds, respectively. Animals were then placed in MAYO restrainers and their feet loosely taped to the restrainer. Heparinized saline (50 units sodium heparin/ml) was used to maintain patency of each cannula throughout the experiment. The following parameters were continuously recorded using Modular Instruments MI^2 BioReport™ software installed on an IBM personal computer: mean arterial pressure (MAP), heart rate (HR), and the change from baseline for each parameter at specified time points in the experiment.
All compounds were dissolved on the day of use. nepicastat was dissolved in deionized water (vehicle) to a free base concentration of 1 mg/ml. Oral dosing volume for nepicastat or vehicle was 10 ml/kg. SCH-23390 was dissolved in saline (vehicle) to a free base concentration of 0.2 mg/ml. […] or saline were administered intravenously as a bolus in a volume of 1.0 ml/kg followed by 0.2 ml flush of isotonic saline.
Following surgical preparation, each animal was allowed a minimum one hour recovery period. Animals were randomly assigned to four treatment groups: vehicle (iv)/vehicle (po); vehicle (iv)/nepicastat (po); SCH-23390 (iv)/vehicle (po); or SCH-23390 (iv)/nepicastat (po). Once animals were stabilized (minimum one hour), baseline blood pressure and heart rate was determined by taking an average of each parameter over a 15 min period of time. Once baseline blood pressure and heart rate were established, animals were dosed intravenously with either SCH-23390 (200 μg/kg) or vehicle (saline, 1 ml/kg). Fifteen minutes later, animals were orally dosed with either nepicastat (10 mg/kg) or vehicle (deionized water, 10 ml/kg).
Recorded parameters were measured 15 min prior to intravenous dosing to establish baseline blood pressure and heart rate. Recorded parameters were then measured at 5, 10, and 15 min following intravenous administration of SCH-23390 or vehicle. Following oral administration of nepicastat or vehicle, recorded parameters were measured at 15, 30, 60, 90, 120, 150, 180, 210, and 240 min.
At the end of the experiment, each animal was anesthetized with halothane and euthanized via decapitation. The cortex, left ventricle (apex), and mesenteric artery were dissected out, weighed, and fixed in 0.4 M perchloric acid. […] Blood pressure and heart rate were analyzed separately. The change from baseline for blood pressure and heart rate were analyzed by an analysis of variance (ANOVA) with effects for treatment, time, and their interaction. […]

T1 sequence (P07101 whole entry): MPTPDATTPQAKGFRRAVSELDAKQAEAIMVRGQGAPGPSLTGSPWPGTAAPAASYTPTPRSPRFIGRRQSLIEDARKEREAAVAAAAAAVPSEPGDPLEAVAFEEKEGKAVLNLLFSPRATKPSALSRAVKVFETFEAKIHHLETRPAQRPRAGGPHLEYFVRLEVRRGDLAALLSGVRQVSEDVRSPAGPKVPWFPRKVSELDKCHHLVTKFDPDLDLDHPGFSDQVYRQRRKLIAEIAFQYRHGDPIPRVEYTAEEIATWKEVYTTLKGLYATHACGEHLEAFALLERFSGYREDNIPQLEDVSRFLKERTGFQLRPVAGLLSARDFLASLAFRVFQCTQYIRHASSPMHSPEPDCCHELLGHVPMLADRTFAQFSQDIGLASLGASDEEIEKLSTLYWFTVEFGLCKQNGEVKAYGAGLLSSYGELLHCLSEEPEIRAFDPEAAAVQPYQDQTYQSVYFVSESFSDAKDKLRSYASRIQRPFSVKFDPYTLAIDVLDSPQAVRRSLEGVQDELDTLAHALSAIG

Cl.NCc1c[nH]c(=S)n1[C@H]1CCc2c(F)cc(F)cc2C1 [nepicastat, (S)-5-Aminomethyl-1-(5,7-difluoro-1,2,3,4-tetrahydronaphth-2-yl)-2,3-dihydro-2-thioxo-1H-imidazole hydrochloride] was tested, and the pIC50 (tyrosine hydroxylase) was under 5.00, the pIC50 (cyclooxygenase-I) was under 5.00 and the pIC50 (nitric oxide synthase) was under 5.00. It also gave a pIC50 (acetyl CoA synthetase) of under 5.00, a pIC50 (neutral endopeptidase) of under 5.00 and a pIC50 [1] of under 5.00. For the same compound, the pIC50 [2] was under 5.00, the “heart rate response to i.v. tyramine challenge” value ([3]; 10 mg/kg/d for 4.5 days) was “significantly reduced the increase in heart rate” and the “inhibition of responses to renal nerve stimulation and carotid artery occlusion” value ([3]; 30 mg/kg intraduodenally, up to 5 hours) was “did not significantly inhibit”. For the same compound, the “mean arterial pressure vs vehicle” value ([4]; 10 mg/kg oral) was “significant decrease (p<0.05) in mean arterial pressure by 30 min post dose”, the “heart rate vs vehicle” value ([4]; SCH-23390 200 μg/kg iv, nepicastat 10 mg/kg po) was “did not decrease the heart rate as much as observed in vehicle treated animals” and the “antihypertensive effects of nepicastat after pretreatment with SCH-23390” value ([4]; nepicastat 10 mg/kg po, SCH-23390 iv, hydrochloride) was “not attenuated; also recorded: did not significantly attenuate”.
